The results in this text go back to publication PMC11904221 (EMBO Molecular Medicine, 2025).

Values after ≈ are worked out from the molar mass of the structure shown. Read-outs that look alike come from different tables or passages of the source. Where a SMILES comes first, the peptide text is derived from it.

The conditions of data set [1]: pH 7.4, aqueous buffer.
A short description of a further data set: in vivo. Particulars: BALB/c, mouse, ip. As for the experimental part: Pharmacological profile of APLN-DM peptide
Maximal Tolerated Dose (MTD) study of APLN -DM in mice
Six groups comprising six Balb/C mice per group (3 males and 3 females) were assigned to the study. In each gender, one control group (1 Male (M)/1 female (F)) received the reference solution (vehicle) and 5 […]
mg/kg (4M/4F), 2000 mg/kg (5M/5F) and 1500 mg/kg (6M/6F). APLN-DM peptide was administrated via intra-peritoneal (IP) single injection at day 1 followed by observation during 14 days. During the study, mortality, morbidity, general clinical signs and bod y weight were recorded. In the end of the study pathology and organ necropsy examination were performed. Thereby, APLN-DM peptide and vehicle were administered to mice according to Table-1 and their effects were analyzed according to Table-2.
Each test item dose was administrated to 3 female and 3 male mice. The administration was performed IP at a dose volume of 10 ml/kg. Dosing was performed according to Figure-1 and each increase in dose pending on the outcome of the previous dose (results of clinical signs). The lag time between the increasing doses was approximately 48h.
No. (n=) Mouse# Treatment Dose Level administration administratio […]
Table-1. Study design -1. […], […]
Study Day* Procedure Body Weight Clinical Mortality & Organ
Sign Morbidity observation
2-14 - Twice weekly Once -
15 Termination √ √ Gross pathology
Figure 1 - Decisional tree for successive dosing for MTD determination […]
At study termination, body weight (Figure 2 and Figure 3) and gross pathology abnormalities were analyzed in all animals. Main pathological finding were blood clots in intestine and chest cavity. Treatment-related clinical adverse side effects (purple tail, lethargy, decreased motor activity) were observed also in groups treated either with 200, 500, 1000 and 1500 mg/kg. The tail recovered a normal color after 1 hour in all dose groups. […]
abnormalities were detected in all male and female animals from these groups at the scheduled termination […]

The nature of data set [2]: Time-dependent stability in water and in plasma on storage, LC-MS. Particulars: read-out: % of area at T=0. It is filed as physicochemical. As for the experimental part: The standard deviations were below the acceptable values (<15%) showing that the accuracy is correct and compliant with standard quantification protocols. […]
the linearity of the method. […]
for concentrations below 0.5 µM.
The second step of the study consisted to analyse the stability of the peptide in order to evaluate the feasibility of the quantification of APLN-DM in the samples obtained in vivo.
Quantification in the plasma after protein precipitation
Before the injection for LC-MS analysis, the plasmas had to be processed for elimination of major proteins, which can disturb the analysis. Proteins were precipitated by an organic solvent. […]
The second method was adapted from the protocol described by O. Chertov et al. (Proteomics 2004, 4, 1195- […]
1203). […] 7 µl of this solution were […]
added to 70 µl plasma or 70 µl water (control).
10 µl of each sample were mixed to 20 µl water, vortexed, mixed to 45 µl d’acetonitrile + 0.1% trifluoroacetic acid, sonicated, vortexed, centrifuged for 15 minutes. The supernatant was evaporated and the pellet was re-suspended in 30 µl water. The 2 samples (peptide in plasma or in water) were injected in LC-MS according to the conditions previously established.
With this method, the recovery of APLN-DM in the plasma after protein precipitation was sufficient.
The coefficient of variation was acceptable. This method was used for the stability study in the plasma.
7 µl were added to 3 samples […]
of 70 µl plasma or 70 µl water.
Six solutions were obtained:
-W RT : solution in water stored at room temperature
-W 4°C : solution in water stored at 4°C
-W -18°C : solution in water stored at -18°C
-P RT : solution in plasma stored at room temperature
-P 4°C : solution in plasma stored at 4°C
-P -18°C : solution in plasma stored at -18°C. […]
processed for protein extraction (according to the method previously described), and then injected in […]
LC-MS for APLN-DM quantification. For […]
each sample, % were calculated according to the area obtained at T=0 which correspo nd to 100%.

`CSCC[C@H](NC(=O)[C@@H]1CCCN1C(=O)CNC(=O)[C@H](CCCCN)NC(=O)[C@H](Cc1c[nH]cn1)NC(=O)[C@H](CO)NC(=O)[C@H](CC(C)C)NC(=O)[C@H](CCCNC(=N)N)NC(=O)[C@@H]1CCCN1C(=O)[C@H](CCCNC(=N)N)NC(=O)[C@H](CCC(N)=O)NC(=O)[C@H](CO)NC(=O)[C@H](CO)NC(=O)[C@H](Cc1ccccc1)NC(=O)[C@H](CCCCN)NC(=O)[C@H](CO)NC(=O)[C@H](CO)NC(=O)CNC(=O)CNC(=O)[C@H](CCC(N)=O)NC(=O)[C@H](Cc1c[nH]c2ccccc12)NC(=O)[C@@H]1CCCN1C(=O)CNC(=O)[C@@H]1CCCN1C(=O)CNC(=O)[C@H](CC(N)=O)NC(=O)[C@H](CCCNC(=N)N)NC(=O)[C@H](CO)NC(=O)CNC(=O)[C@H](CCCNC(=N)N)NC(=O)[C@@H]1CCCN1C(=O)[C@H](CCC(N)=O)NC(=O)[C@@H](NC(=O)[C@@H](N)CC(C)C)C(C)C)C(=O)N1CCC[C@H]1C(=O)N[C@@H](Cc1ccccc1)C(=O)O` [APLN-DM] (H-LVQPRGSRNGPGPWQGGSSKFSSQRPRLSHKGPMPF-OH): the thermodynamic solubility in data set [1] amounted to 187 µM (≈ 734 µg/mL). For the same compound, in “in vitro”, the “% Protein bound, 1st” value is on record as 26.1%; the “% Protein bound, 2nd” value is listed as 26.9%; the “% Recovery, Mean” value worked out at 93%. In addition, the fraction unbound at 4 h, 1e-05 M in the data set “in vitro” (CD-1, mouse, plasma) is 0.74. Besides, the MTD at 336 h in “in vivo” (female) was 1000 mg/kg. In “in vivo” (male), this compound yielded an MTD at 336 h of 1500 mg/kg. Also, in data set [2] (P 4°C), the remaining at 2 h came to 51% and the remaining at 168 h is 6%. The remaining at 1 h in data set [2] (P 4°C: in plasma, 4°C) amounted to 66%. Also, in data set [2] (P -18°C), the remaining at 2 h was 66%, the remaining at 5 h was found to be 114%, the remaining at 24 h was determined as 86% and the remaining at 48 h turned out to be 97%. In data set [2] (P -18°C), the remaining at 72 h came out at 89% and the remaining at 168 h came to 12%. Moreover, in data set [2] (P -18°C: in plasma, -18°C), the remaining at 1 h came to 75%. Moreover, in data set [2] (P RT), the remaining at 2 h is 17%, the remaining at 5 h was found to be 13%, the remaining at 24 h was determined as 8% and the remaining at 48 h came to 14%. Also, in data set [2] (P RT), the remaining at 72 h was found to be 7% and the remaining at 168 h worked out at 22%. Besides, in data set [2] (P RT: in plasma, room temperature), the remaining at 1 h worked out at 21%.
